Data: patent publication US6369208B1, “Capped synthetic RNA, analogs, and aptamers” (Merck & Co., Inc., priority 1995, dated 2002)

Tests used:
influenza endonuclease [1] = target: T1, influenza endonuclease (Influenza A virus, UniProt P03428+P03433)
influenza endonuclease [2] = target: T1, influenza endonuclease; remark: listed apart in the source
influenza endonuclease [3] = target: T1, influenza endonuclease; remark: listed apart in the source

Substance: m^7GpppG(2′-OMe)UAUUAAUA(3′-dA)-3′ [SEQ.ID.NO.:3]
- binding of the labeled capped 10-mer displaced by competition with unlabeled competitor (influenza endonuclease [1]): 95%
- saturation amplitude (influenza endonuclease [1]): 5.2 nM
- inhibition of influenza endonuclease (in words) (influenza endonuclease [2]): potent inhibitor of influenza endonuclease

Substance: pppG(2′-OMe)UAUUAAUA(3′dA)-3′ [SEQ.ID.NO.:21]
- binding of the labeled capped 10-mer competed by unlabeled competitor (influenza endonuclease [1]): 10%

Substance: pppG(2′-OMe)UUUUUAUUUUUAAUUUUC-3′ [SEQ.ID.NO.:4]
- Km (influenza endonuclease [3]): 0.4 nM
- site of cleavage by influenza endonuclease (influenza endonuclease [3]): between the two A's at positions 13-14
